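Five compound concentrations were applied to cells in 96-well plates for 48 hours; endpoints were derived by simple linear interpolation of the resulting dose-response curve. GI50 marks 50% less growth. TGI denotes the concentration required for complete inhibition of growth.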
Legend:
Assay in all cases: NCI tumour cell line growth inhibition, 48 h; in the data active = GI50 below about 0.43 µM; inactive = the rest
786-0 renal = test system: 786-0 renal
A498 renal = test system: A498 renal
A549 NSCLC = test system: A549 NSCLC
ACHN renal = test system: ACHN renal
BT-549 breast = test system: BT-549 breast
CAKI-1 renal = test system: CAKI-1 renal
CCRF-CEM leukemia = test system: CCRF-CEM leukemia
COLO 205 colon = test system: COLO 205 colon
DU-145 prostate = test system: DU-145 prostate
EKVX NSCLC = test system: EKVX NSCLC
HCC-2998 colon = test system: HCC-2998 colon
HCT-116 colon = test system: HCT-116 colon
HCT-15 colon = test system: HCT-15 colon
HL-60(TB) leukemia = test system: HL-60(TB) leukemia
HOP-62 NSCLC = test system: HOP-62 NSCLC
HOP-92 NSCLC = test system: HOP-92 NSCLC
HS 578T breast = test system: HS 578T breast
HT29 colon = test system: HT29 colon
IGROV1 ovarian = test system: IGROV1 ovarian
K-562 leukemia = test system: K-562 leukemia
KM12 colon = test system: KM12 colon
LOX IMVI melanoma = test system: LOX IMVI melanoma
M14 melanoma = test system: M14 melanoma
MALME-3M melanoma = test system: MALME-3M melanoma
MCF7 breast = test system: MCF7 breast
MDA-MB-231 breast = test system: MDA-MB-231 breast
MDA-MB-435 = test system: MDA-MB-435
MOLT-4 leukemia = test system: MOLT-4 leukemia
NCI-H226 lung = test system: NCI-H226 lung
NCI-H23 lung = test system: NCI-H23 lung
NCI-H460 lung = test system: NCI-H460 lung
NCI-H522 lung = test system: NCI-H522 lung
NCI/ADR-RES ovarian = test system: NCI/ADR-RES ovarian
OVCAR-3 ovarian = test system: OVCAR-3 ovarian
OVCAR-4 ovarian = test system: OVCAR-4 ovarian
OVCAR-5 ovarian = test system: OVCAR-5 ovarian
OVCAR-8 ovarian = test system: OVCAR-8 ovarian
PC-3 prostate = test system: PC-3 prostate
RPMI-8226 leukemia = test system: RPMI-8226 leukemia
RXF 393 renal = test system: RXF 393 renal
SF-268 CNS = test system: SF-268 CNS
SF-295 CNS = test system: SF-295 CNS
SF-539 CNS = test system: SF-539 CNS
SK-MEL-2 melanoma = test system: SK-MEL-2 melanoma
SK-MEL-28 melanoma = test system: SK-MEL-28 melanoma
SK-MEL-5 melanoma = test system: SK-MEL-5 melanoma
SK-OV-3 ovarian = test system: SK-OV-3 ovarian
SN12C renal = test system: SN12C renal
SNB-19 CNS = test system: SNB-19 CNS
SNB-75 CNS = test system: SNB-75 CNS
SR leukemia = test system: SR leukemia
SW-620 colon = test system: SW-620 colon
T-47D breast = test system: T-47D breast
TK-10 renal = test system: TK-10 renal
U251 CNS = test system: U251 CNS
UACC-257 melanoma = test system: UACC-257 melanoma
UACC-62 melanoma = test system: UACC-62 melanoma
UO-31 renal = test system: UO-31 renal

Cc1cc(I)cc(CN(C)CCN2CCOCC2)c1O
> 96.3 µM: TGI (A498 renal)
> 85.6 µM: TGI (SK-MEL-5 melanoma)
97.7 µM: TGI (SR leukemia)
66.6 µM: TGI (HL-60(TB) leukemia)
> 100 µM: TGI (786-0 renal) | TGI (A549 NSCLC) | TGI (ACHN renal) | TGI (BT-549 breast) | TGI (CAKI-1 renal) | TGI (COLO 205 colon) | TGI (DU-145 prostate) | TGI (EKVX NSCLC) | TGI (HCC-2998 colon) | TGI (HCT-116 colon) | TGI (HCT-15 colon) | TGI (HOP-62 NSCLC) | TGI (HOP-92 NSCLC) | TGI (HT29 colon) | TGI (IGROV1 ovarian) | TGI (K-562 leukemia) | TGI (KM12 colon) | TGI (LOX IMVI melanoma) | TGI (M14 melanoma) | TGI (MALME-3M melanoma) | TGI (MCF7 breast) | TGI (MDA-MB-231 breast) | TGI (MDA-MB-435) | TGI (MOLT-4 leukemia) | TGI (NCI-H226 lung) | TGI (NCI-H23 lung) | TGI (NCI-H460 lung) | TGI (NCI-H522 lung) | TGI (NCI/ADR-RES ovarian) | TGI (OVCAR-3 ovarian) | TGI (OVCAR-4 ovarian) | TGI (OVCAR-5 ovarian) | TGI (OVCAR-8 ovarian) | TGI (PC-3 prostate) | TGI (RPMI-8226 leukemia) | TGI (RXF 393 renal) | TGI (SF-268 CNS) | TGI (SF-539 CNS) | TGI (SK-MEL-2 melanoma) | TGI (SK-MEL-28 melanoma) | TGI (SK-OV-3 ovarian) | TGI (SN12C renal) | TGI (SNB-19 CNS) | TGI (SNB-75 CNS) | TGI (SW-620 colon) | TGI (T-47D breast) | TGI (TK-10 renal) | TGI (U251 CNS) | TGI (UACC-257 melanoma) | TGI (UACC-62 melanoma) | TGI (UO-31 renal)
> 82.3 µM: TGI (SF-295 CNS)
> 72.5 µM: TGI (HS 578T breast)
inactive: GI50 (786-0 renal) > 100 µM | GI50 (A498 renal) 43.3 µM | GI50 (A549 NSCLC) 54.6 µM | GI50 (ACHN renal) 60.2 µM | GI50 (BT-549 breast) 43.7 µM | GI50 (CAKI-1 renal) > 61.4 µM | GI50 (CCRF-CEM leukemia) 0.87 µM | GI50 (COLO 205 colon) 71.6 µM | GI50 (DU-145 prostate) 61 µM | GI50 (EKVX NSCLC) 47.1 µM | GI50 (HCC-2998 colon) > 80.8 µM | GI50 (HCT-116 colon) 30.4 µM | GI50 (HCT-15 colon) 38.8 µM | GI50 (HL-60(TB) leukemia) 25.8 µM | GI50 (HOP-62 NSCLC) 64.7 µM | GI50 (HOP-92 NSCLC) 38 µM | GI50 (HS 578T breast) 23.4 µM | GI50 (HT29 colon) 33.4 µM | GI50 (IGROV1 ovarian) 37.2 µM | GI50 (K-562 leukemia) 28.4 µM | GI50 (KM12 colon) 44.5 µM | GI50 (LOX IMVI melanoma) 65 µM | GI50 (M14 melanoma) 79.3 µM | GI50 (MALME-3M melanoma) > 78.8 µM | GI50 (MCF7 breast) 44.1 µM | GI50 (MDA-MB-231 breast) 97.9 µM | GI50 (MDA-MB-435) 67.3 µM | GI50 (MOLT-4 leukemia) 35.7 µM | GI50 (NCI-H226 lung) > 76.9 µM | GI50 (NCI-H23 lung) 62.7 µM | GI50 (NCI-H460 lung) 43.4 µM | GI50 (NCI-H522 lung) 79 µM | GI50 (NCI/ADR-RES ovarian) 59.8 µM | GI50 (OVCAR-3 ovarian) 49.9 µM | GI50 (OVCAR-4 ovarian) 53.2 µM | GI50 (OVCAR-5 ovarian) > 100 µM | GI50 (OVCAR-8 ovarian) 75.1 µM | GI50 (PC-3 prostate) 34.9 µM | GI50 (RPMI-8226 leukemia) 30.2 µM | GI50 (RXF 393 renal) > 88 µM | GI50 (SF-268 CNS) 59.5 µM | GI50 (SF-295 CNS) 29.8 µM | GI50 (SF-539 CNS) > 100 µM | GI50 (SK-MEL-2 melanoma) > 100 µM | GI50 (SK-MEL-28 melanoma) > 78.1 µM | GI50 (SK-MEL-5 melanoma) 35.3 µM | GI50 (SK-OV-3 ovarian) > 100 µM | GI50 (SN12C renal) > 68 µM | GI50 (SNB-19 CNS) > 87.1 µM | GI50 (SNB-75 CNS) 53.5 µM | GI50 (SR leukemia) 12.5 µM | GI50 (SW-620 colon) 55.2 µM | GI50 (T-47D breast) 27.5 µM | GI50 (TK-10 renal) > 76.8 µM | GI50 (U251 CNS) 49.7 µM | GI50 (UACC-257 melanoma) 99.5 µM | GI50 (UACC-62 melanoma) > 66.1 µM | GI50 (UO-31 renal) 45.2 µM

From PubChem BioAssay (NCI)
